Patent publication US20240124938A1, “VISUAL DETECTION OF PBD INDUCED DNA CROSSLINKS” (INSERM (INSTITUT NATIONAL DE LA SANTÉ ET DE LA RECHERCHE …, priority 2019, published 2024)

Test system: DNA crosslinks in mouse bone marrow cells
Assay: Detection of SJG-136-click in mouse bone marrow by confocal microscopy (click labelling of DNA crosslinks)
Format: in vivo
Conditions: mice treated 0.3 mg/kg, 45 minutes; for click-647 (Alexa Fluor 647 azide) signal observed by confocal imaging: sites of reticulation (DNA crosslinks): 10 μm bone marrow sections of femur/tibia, click-it solution with Alexa Fluor 647 azide, FIG. 1 middle column
Protocol: FIG. 1 represents confocal microscopy observations of samples of mice bone marrow in mouse femur tissues treated with 0.3 mg·kg^−1 of either SJG136 (top line of images) (corresponding to a compound outside of the invention) or SJG136-click (bottom line of images) (corresponding to the compound of formula (IV) according to the invention). The nucleus of the sample's cells are identified on the left column by DAPI staining. The middle column represents images obtained by exposing clickable 647 fluorophore (Alexa Fluor™ 647 azide, sold by the company Thermo Fisher) to the samples treated with SJG136 or SJG136-click to detect the SJG136 or SJG136-click. On the right column, observations from the left and middle column are merged. Some of the observable DNA crosslinking are indicated by white arrows in the middle and right cases of the bottom line.
Mice were treated with a compound of formula (IV) according to the invention (0,3 mg/kg) during 45 minutes.
The bone(s) (i.e. femur and tibia) were dissected from the mouse and surrounding muscle(s) were removed. Said bone(s) were immediately fixed with 4% ice-cold PFA solution for 24 hours at 4° C. in a 15 mL conical tube. The bone sample(s) were then washed three times with PBS. Each wash was carried out for 5 minutes at 4° C. with 7 mL of PBS under constant agitation.
A DCAL solution, containing 0.5 M of EDTA, was prepared by dissolving 186.1 g of EDTA in 800 mL of ddH2O with the addition of about 20 g of NaOH pellets to bring the mixture to a pH in the range of 7.4-7.6 by continuous stirring. The volume is adjusted to 1 L and the solution is filtered on a 0.5 μm filter.
A cryoprotectant (CPT) solution (1×) was also prepared by dissolving 200 g of sucrose and 20 g of polyvinylpyrrolidone (PVP) in 700 mL of PBS under constant stirring by a magnetic stirrer. The volume was then adjusted to 1 L and the solution was mixed until a homogeneous solution was obtained. […]

`C#CCC(COc1cc2c(cc1OC)C(=O)N1CC(=C)CC1C=N2)COc1cc2c(cc1OC)C(=O)N1CC(=C)CC1C=N2` (stereo not drawn) [SJG136-click, 8,8′-((2-(prop-2-yn-1-yl)propane-1,3-diyl)bis(oxy))bis(7-methoxy-2-methylene-2,3-dihydro-1H-benzo[e]pyrrolo[1,2-a][1,4]diazepin-5(11aH)-one)] was tested. Which “click-647 (Alexa Fluor 647 azide) signal observed by confocal imaging: sites of reticulation (DNA crosslinks)” value did it give?
Its value is “several light spots, clearly distinct one from the others”.

And the “localisation of click-647 light spots relative to DAPI-stained nuclei (merged image)” value (bone marrow sections, merge of DAPI and click-647 images, FIG. 1 right column)?
The value was “all the light spots observed are within the nucleus of cells”.

How did the “click-647 (Alexa Fluor 647 azide) signal observed by confocal imaging: sites of reticulation (DNA crosslinks)” value turn out when `C=C1C[C@H]2C=Nc3cc(OCCCOc4cc5c(cc4OC)C(=O)N4CC(=C)C[C@H]4C=N5)c(OC)cc3C(=O)N2C1` [SJG136, reference compound] was run?
The value was “nothing is visible”.
